In patent US6710074B2, “Compound having antimalarial activity” (Japan Science and Technology Corporation, priority 2000, dated 2004):
Where two headings read alike, the source gives them in different places.

Experiments:
P. falciparum = experiment: Growth inhibition test of P. falciparum; type: cell-based, Plasmodium falciparum; details: for Chemotherapeutic coefficient IC50/EC50: IC50 of mouse FM3A cells / EC50 of P. falciparum, index of selective toxicity; for EC50: Plasmodium falciparum
Method: P. Falciparum FCR-3 strain (ATCC30932) and P. Falciparum Honduras-i strain (ATCC30935), both of which are Plasmodium falciparum, were used as test malaria parasites for measuring antimalarial activity. A filter-sterilized RPMI1640 medium was adjusted to be pH 7.4 and added with human serum such that the serum made up 10% of the medium, and used as a test medium. The above-mentioned P. falciparum were cultured in O2at a concentration of 5%, CO2 at a concentration of 5% and N2 at a concentration of 90%, at a temperature of 36.5° C. Hematocrit value (ratio of volume of erythrocytes in erythrocyte suspension) used was adjusted to be 5%. Initial infection rate of P. falciparum at the beginning of culture was adjusted to be 0.1%. A 24-well plate was used for culture and a medium was replaced everyday, and cultures were transferred at infection rate of 4%. A thin-layer smear was constructed and subjected to Giemsa staining which had been originally developed for malarial test, or Diff-Qick staining, and followed by measurement under a microscope (oil immersion, 1000×), and then infection rate of P. falciparum was calculated according to a formula mentioned below. [formula]
Cultured erythrocytes infected with P. falciparum were gathered by centrifugation and washed with a medium containing serum, then noninfected erythrocytes were added, and a culture liquid for P. falciparum at initial infection rate of 0.3% was prepared. Hematocrit value in this case was adjusted to be 3%. The compound according to the present invention used for a test and represented by the formula (II) and […] of positive control drug (quinine, artemisinin, artesunate, mefloquine) were dissolved into sterilized water, N,N-dimethylformamide (DMF) or dimethylsulfoxide (DMSO), and a sample solution at prescribed concentration was prepared. 5 to 10 μl of the sample solution was added to each well of a 24-well plate. The sample solution was duplicated or triplicated. For control, sterilized water, DMF or DMSO was added by 10 μl per well. Next, the above-mentioned culture liquid for P. falciparum prepared to be at initial infection rate of 0.3% was added by 990 to 995 μl each, and uniformly suspended in media by pipetting gently. After cultured for 72 hours in a CO2—O2—N2 (5%, 5%, 90%) incubator, a thin-layer smear was constructed for each well of the culture plate, Giemsa staining or Diff-Qick staining was conducted, followed by measurement under a microscope (oil immersion, 1000×), and then infection rates of P. falciparum in a group supplemented with a test liquid and in controls were calculated. The growth inhibition rate was calculated according to a formula mentioned below based on the infection rate of P. falciparum as calculated above, and 50% growth inhibitory concentration (EC50) was calculated. [formula] […]
a: initial infection rate b: infection rate of a sample solution after 72 hours c: infection rate of a control after 72 hours
Antimalarial activity of a sample was evaluated based on EC50 and IC50 values of the sample of P. falciparum and mouse FM3A cells. Chemotherapeutic coefficient used as an index of selective toxicity against P falciparum was calculated by a formula mentioned below and drug efficacy was assessed. [formula]

mouse FM3A cells = experiment: Growth inhibition test of mouse FM3A cells; type: cell-based; details: for IC50: read-out: 50% growth inhibitory concentration IC50
Method: An F28-7 strain, a wild-type strain of mouse breast cancer-derived FM3A cells was used. Immobilized fetal bovine serum was added to an ES medium such that the serum made up 2% of the medium, and culture was conducted in CO2 at a concentration of 5%, and at 37° C. Doubling time of the F28-7 strain of FM3A cells under this condition was about 12 hours. Cells which had been precultured and entered to logarithmic growth phase were diluted to be 5×10^4 cells/ml in the medium. The same sample solution as in the above-mentioned Example 2-2 was used. 5 to 10 μl of the sample solution was added to each well of a 24-well plate (when medium and the like were added, the final concentration became 1×10^−4˜1×10^−5 M). The sample solution was duplicated or triplicated, and wells added with 10 μl of sterilized water, DMF or DMSO were prepared at the same time as controls. Next, a prepared suspension of cultured cells was added by 990 to 995 μl each, and uniformly suspended in media by pipetting gently. After cultured for 48 hours, the number of cells in each well was counted by a cell counter (CC-108; Toa. Medical Electrics), and growth rate was calculated by a formula mentioned below and 50% growth inhibitory rate (IC50) was calculated. The cell proliferation inhibiting activity was calculated according to the number of cells in wells supplemented with the sample solution and in controls. […] on this, cell toxicity of the sample was evaluated. [formula]
A: the number of cells at the beginning
B: the number of cells in a control after 2 days
C: the number of cells 2 days after supplementation of a sample

[1] = Erythrocyte, P. falciparum in human erythrocytes, cultured for 72 hours, infection rate by smear staining, read-out: 50% growth inhibitory concentration EC50
[2] = F28-7 strain of mouse breast cancer-derived FM3A cells, cultured for 48 hours, cell count

EC50 (P. falciparum; [1]) [nM] | EC50 (P. falciparum; read-out: inhibits the growth of drug-resistant P. falciparum at a mol concentration of) [nM] | SMILES | Chemotherapeutic coefficient IC50/EC50 (P. falciparum) | EC50 (P. falciparum; Erythrocyte, 72 h, read-out: 50% growth inhibitory concentration EC50) [nM] | IC50 (mouse FM3A cells; Mus musculus, FM3A, 48 h) [µM] | IC50 (mouse FM3A cells; [2]) [µM] | selective toxicity against P. falciparum compared with that against mouse FA3A cells (P. falciparum; P. falciparum versus mouse FA3A cells) | growth (mouse FM3A cells; mouse FM3A cells, printed below the IC50 cell 2.4 × 10^−5 M)
7.9 |  | C[C@@H]1CC[C@H]2[C@@H](C)C(=O)O[C@@H]3O[C@@]4(C)CC[C@@H]1[C@]32OO4 [Artemisinin, artemisinin] | 1,300 |  |  | 10 |  | 
39 | 39 | COC(=O)C(C)C1CCC(=O)C2CCC3(C)OOC21C(O)O3 (stereo not drawn) [Compound of the present invention, 12-hidroxy-2-(1-methoxycarbonylethyl)-5-oxo-10,11,13-trioxatricyclo[7.2.0.0^1,6]tridecane] | >1,000 |  |  | ≥ 24 | more than 1,000 times | (78% growth)

Further lines, the compound ahead of its results:

SMILES | EC50 (P. falciparum; [1]) [nM] | EC50 (P. falciparum; read-out: inhibits the growth of drug-resistant P. falciparum at a mol concentration of) [nM] | Chemotherapeutic coefficient IC50/EC50 (P. falciparum) | EC50 (P. falciparum; Erythrocyte, 72 h, read-out: 50% growth inhibitory concentration EC50) [nM] | IC50 (mouse FM3A cells; Mus musculus, FM3A, 48 h) [µM] | IC50 (mouse FM3A cells; [2]) [µM] | selective toxicity against P. falciparum compared with that against mouse FA3A cells (P. falciparum; P. falciparum versus mouse FA3A cells) | growth (mouse FM3A cells; mouse FM3A cells, printed below the IC50 cell 2.4 × 10^−5 M)
C[C@H]1[C@H](OC(=O)CCC(=O)O)O[C@@H]2O[C@@]3(C)CC[C@H]4[C@H](C)CC[C@@H]1[C@@]24OO3 [Artesunate, artesunate] |  |  | 180 | 17 | 3 |  |  | 
C=C[C@H]1C[N@@]2CC[C@H]1C[C@H]2[C@H](O)c1ccnc2ccc(OC)cc12 [Quinine, quinine] | 110 |  | 910 |  |  | 100 |  | 
OC(c1cc(C(F)(F)F)nc2c(C(F)(F)F)cccc12)C1CCCCN1 (stereo not drawn) [Mefloquine, mefloquine] | 32 |  | 90 |  |  | 2.9 |  | 
